This note sets out measurements from patent US20100173888A1 (Pfizer Inc, priority 2008, published 2010).

A word on the IC50: it is the concentration that gives 50% inhibition.

The target in this experiment is human recombinant H-PGDS (Homo sapiens, UniProt O60760). Nature of the experiment: Slightly modified fluorescence intensity h-PGDS TBA enzyme assay (1:40,000 enzyme, 40 second reaction, 1/2 log dilutions, top concentration typically 10 μM). Conditions: slightly modified assay: 1:40,000 human recombinant H-PGDS. The format is biochemical. As to the method: Fluoresecence Intensity h-PGDSTBA Enzyme Assay
human recombinant H-PGDS, sequence (O60760 whole entry): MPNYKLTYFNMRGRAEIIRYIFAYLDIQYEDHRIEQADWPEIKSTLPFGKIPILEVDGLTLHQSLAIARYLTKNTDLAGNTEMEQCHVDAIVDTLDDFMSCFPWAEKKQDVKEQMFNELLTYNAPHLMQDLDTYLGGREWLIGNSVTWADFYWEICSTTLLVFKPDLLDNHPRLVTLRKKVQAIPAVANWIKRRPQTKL
Prostaglandin D Synthase (PGDS) converts the substrate prostaglandin H2 (PGH2) to prostaglandin D2. The depletion of PGH2 was measured via an Fe(II) reduction of the remaining PGH2 to malondialdehyde (MDA) and 12-HHT. The enzyme assay is based on the quantitative formation of a fluorescent complex from the non-fluorescent compounds MDA and 2-thiobarbituric acid (TBA), substantially as described in U.S. patent application publication US-2004/152148 by Lombardt.
Examples 6-8, 11a-16, 23, 26-47, 49-103, 105-113, 115-118 and 126-128 were tested in a slightly modified assay: The enzyme assay (30 μls during biological process) contained 100 mM Trizma pH 8.0, 100 μM MgCl2, 0.1 mg/ml IgG Rabbit serum, 5.0 μM PGH2 (Cayman; ethanol solution, #17020), 2.5 mM L-Glutathione (Sigma; reduced form #G4251), 1:40,000 human recombinant H-PGDS (from 1 mg/ml), 0.5% DMSO and inhibitor (varying concentration). 3 μls of diluted inhibitor (dissolved in DMSO) was plated into a 384-well assay plate followed by a 24 μl addition of an enzyme solution containing h-PGDS, Trizma, MgCl2, IgG and L-Glutathione. After pre-incubation of inhibitor and enzyme solution for 10 minutes at room temperature, the reaction was initiated with a 3 μl addition of substrate solution in 10 mM HCl. The reaction was terminated after 40 second by the addition of 3 μl stop buffer containing FeCl2 and citric acid. After addition of 45 μls of TBA plates were heated for one hour in a 70° C. oven. Plates were cooled at room temperature overnight and read on a plate reader the next day with excitation @ 530 nm and emission @ 560 nm. IC50' s of inhibitors were calculated with a 4-parameter fit using 11 inhibitor concentrations in duplicate with ½ log serial dilutions. Controls on each plate included no inhibitor (zero % effect) and an inhibitor 500-fold in excess of its' IC50 (100% effect). The highest inhibitor concentration tested was typically 10 μM.
`O=C(NC1CCC(N2CC[C@@H](O)C2)CC1)c1ccc(-c2cccc(F)c2)nc1` (single isomer, unassigned) [Example 60]: the IC50 is 111 nM.
Then `O=C(NC1CCC(N2CC[C@@H](O)C2)CC1)c1ccc(-c2cccc(F)c2)nc1` (single isomer, unassigned) [Example 61], with 45 nM; and `O=C(NC1CCC(c2ncc[nH]2)CC1)c1ccc(-c2cccc(F)c2)nc1` (single isomer, unassigned) [Example 63, 6-(3-Fluorophenyl)-N-[4-(1H-imidazol-2-yl)cyclohexyl]nicotinamide], with 13 nM; and `O=C(NC1CCC(c2ncc[nH]2)CC1)c1ccc(-c2cccc(F)c2)nc1` (single isomer, unassigned) [Example 64, 6-(3-Fluorophenyl)-N-[4-(1H-imidazol-2-yl)cyclohexyl]nicotinamide], with 6.2 nM.
The result for `O=C(NC1CC1)c1ccc(-c2cccc(F)c2)nc1` [Example 6, N-Cyclopropyl-6-(3-fluoro-phenyl)-nicotinamide] reads 159 nM; that for `CN(C)C[C@H]1C[C@@H](NC(=O)c2ccc(-c3cccc(F)c3)nc2)C1` [Example 7], 292 nM; that for `O=C(N[C@H]1CCC[C@H]1C(=O)O)c1ccc(-c2cccc(F)c2)nc1` [Example 8], 1720 nM.
Then `O=C(N[C@@H]1CC[C@H](C(=O)O)C1)c1ccc(-c2cccc(F)c2)nc1` [Example 11a, (1S,3R)-3-({[6-(3-Fluorophenyl)pyridin-3-yl]carbonyl}amino)cyclopentanecarboxylic acid], with 125 nM.
With `O=C(N[C@H]1CC[C@@H](C(=O)O)C1)c1ccc(-c2cccc(F)c2)nc1` [Example 11b, (1R,3S)-3-({[6-(3-Fluorophenyl)pyridin-3-yl]carbonyl}amino)cyclopentanecarboxylic acid], the IC50 was 13.7 nM.
With `CN1CCN(C(=O)[C@H]2CC[C@@H](NC(=O)c3ccc(-c4cccc(F)c4)nc3)C2)CC1` [Example 12, 6-(3-Fluorophenyl)-N-{(1R,3S)-3-[(4-methylpiperazin-1-yl)carbonyl]cyclopentyl}nicotinamide], the IC50 came to 11.2 nM.
Then `O=C(N[C@@H]1CC[C@H](C(=O)N2CCNCC2)C1)c1ccc(-c2cccc(F)c2)nc1` [Example 13, 6-(3-Fluorophenyl)-N-[(1R,3S)-3-(piperazin-1-ylcarbonyl)cyclopentyl]nicotinamide], with 16.5 nM; and `O=C(N[C@@H]1CC[C@H](C(=O)N2CCC(O)CC2)C1)c1ccc(-c2cccc(F)c2)nc1` [Example 14, 6-(3-Fluorophenyl)-N-{(1R,3S)-3-[(4-hydroxypiperidin-1-yl)carbonyl]cyclopentyl}nicotinamide], with 7.48 nM; and `O=C(N[C@@H]1CC[C@H](C(=O)N2CC[C@H](O)C2)C1)c1ccc(-c2cccc(F)c2)nc1` [Example 15, 6-(3-Fluorophenyl)-N-[(1R,3S)-3-{[(3S)-3-hydroxypyrrolidin-1-yl]carbonyl}cyclopentyl]nicotinamide], with 10.3 nM.
The result for `N[C@H]1CCN(C(=O)[C@H]2CC[C@@H](NC(=O)c3ccc(-c4cccc(F)c4)nc3)C2)C1` [Example 16, N-[(1R,3S)-3-{[(3S)-3-Aminopyrrolidin-1-yl]carbonyl}cyclopentyl]-6-(3-fluorophenyl)nicotinamide] reads 29.1 nM; that for `NC1CCC(NC(=O)c2ccc(-c3cccc(F)c3)nc2)CC1` (stereo not drawn) [Example 44, N-(4-Aminocyclohexyl)-6-(3-fluorophenyl)nicotinamide], 67.5 nM.
The result for `CSc1nccn1C1CCC(NC(=O)c2ccc(-c3cccc(F)c3)nc2)CC1` (stereo not drawn) [Example 45, 6-(3-Fluorophenyl)-N-{4-[2-(methylthio)-1H-imidazol-1-yl]cyclohexyl}nicotinamide] reads 10.5 nM.
Consider `CC(=O)NC1CCC(NC(=O)c2ccc(-c3cccc(F)c3)nc2)CC1` (stereo not drawn) [Example 46, N-(4-Acetamidocyclohexyl)-6-(3-fluorophenyl)nicotinamide], for which the IC50 is 10.7 nM.
On to `O=C(NC1CCC(n2ccnc2)CC1)c1ccc(-c2cccc(F)c2)nc1` (stereo not drawn) [Example 47, 6-(3-Fluorophenyl)-N-[4-(1H-imidazol-1-yl)cyclohexyl]nicotinamide], for which the IC50 stood at 23 nM.
With `O=C(NC1CCC(N2CCCOCC2)CC1)c1ccc(-c2cccc(F)c2)nc1` (stereo not drawn) [Example 53, 6-(3-Fluorophenyl)-N-[4-(1,4-oxazepan-4-yl)cyclohexyl]nicotinamide], the IC50 came out at 9.26 nM.
Consider `O=C(NC1CCC(N2CCC(O)CC2)CC1)c1ccc(-c2cccc(F)c2)nc1` (stereo not drawn) [Example 62, 6-(3-Fluorophenyl)-N-[4-(4-hydroxypiperidin-1-yl)cyclohexyl]nicotinamide], for which the IC50 is 137 nM.
Take `COCCNC(=O)[C@@H]1CCC[C@H](NC(=O)c2ccc(-c3cccc(F)c3)nc2)C1` [Example 64A, 6-(3-fluorophenyl)-N-{(1S,3R)-3-[(2-methoxyethyl)carbamoyl]cyclohexyl}nicotinamide]: the IC50 was determined as 8.3 nM.
The result for `O=C(N[C@H]1CC[C@@H](O)CC1)c1ccc(-c2cccc(F)c2)nc1` [Example 65, 6-(3-Fluorophenyl)-N-(cis-4-hydroxycyclohexyl)nicotinamide] reads 15.7 nM; that for `O=C(N[C@H]1CC[C@@H](C(=O)O)CC1)c1ccc(-c2cccc(F)c2)nc1` [Example 66, cis-4-({[6-(3-Fluorophenyl)pyridin-3-yl]carbonyl}amino)cyclohexanecarboxylic acid], 97.4 nM; that for `CN(C)C[C@H]1CC[C@@H](NC(=O)c2ccc(-c3cccc(F)c3)nc2)CC1` [Example 67, N-{cis-4-[(Dimethylamino)methyl]cyclohexyl}-6-(3-fluorophenyl)nicotinamide], 118 nM.
Then `O=C(N[C@H]1CC[C@@H](C(=O)N2CCC(O)CC2)CC1)c1ccc(-c2cccc(F)c2)nc1` [Example 68, 6-(3-Fluorophenyl)-N-{cis-4-[(4-hydroxypiperidin-1-yl)carbonyl]cyclohexyl}nicotinamide], with 13.2 nM; and `O=C(N[C@H]1CC[C@@H](C(=O)NC2CCCC2)CC1)c1ccc(-c2cccc(F)c2)nc1` [Example 69, N-[cis-4-(Cyclopentylcarbmoyl)cyclohexyl]-6-(3-fluorophenyl)nicotinamide], with 14.7 nM.
The result for `O=C(N[C@H]1CC[C@@H](C(=O)N2CCCC2)CC1)c1ccc(-c2cccc(F)c2)nc1` [Example 70, 6-(3-Fluorophenyl)-N-[cis-4-(pyrrolidin-1-ylcarbonyl)cyclohexyl]nicotinamide] reads 4.62 nM; that for `O=C(N[C@H]1CC[C@@H](C(=O)NCc2ccccc2)CC1)c1ccc(-c2cccc(F)c2)nc1` [Example 71, N-[cis-4-(Benzylcarbamoyl)cyclohexyl]-6-(3-fluorophenyl)nicotinamide], 22 nM; that for `CN1CCN(C(=O)[C@H]2CC[C@@H](NC(=O)c3ccc(-c4cccc(F)c4)nc3)CC2)CC1` [Example 72, 6-(3-Fluorophenyl)-N-{cis-4-[(4-methylpiperazin-1-yl)carbonyl]cyclohexyl}nicotinamide], 23.2 nM.
On to `O=C(N[C@H]1CC[C@@H](C(=O)N2CCOCC2)CC1)c1ccc(-c2cccc(F)c2)nc1` [Example 73, 6-(3-Fluorophenyl)-N-[cis-4-(morpholin-4-ylcarbonyl)cyclohexyl]nicotinamide], for which the IC50 turned out to be 14 nM.
Then `CN(C)C(=O)[C@H]1CC[C@@H](NC(=O)c2ccc(-c3cccc(F)c3)nc2)CC1` [Example 74, N-[cis-4-(Dimethylcarbamoyl)cyclohexyl]-6-(3-fluorophenyl)nicotinamide], with 10.8 nM.
The result for `CC(C)(C)NC(=O)[C@H]1CC[C@@H](NC(=O)c2ccc(-c3cccc(F)c3)nc2)CC1` [Example 75, N-[cis-4-(tert-Butylcarbamoyl)cyclohexyl]-6-(3-fluorophenyl)nicotinamide] reads 20.6 nM; that for `CNCCN(C)C(=O)[C@H]1CC[C@@H](NC(=O)c2ccc(-c3cccc(F)c3)nc2)CC1` [Example 76, 6-(3-Fluorophenyl)-N-(cis-4-{methyl[2-(methylamino)ethyl]carbamoyl}cyclohexyl)nicotinamide], 31.8 nM; that for `CCN(C)C(=O)[C@H]1CC[C@@H](NC(=O)c2ccc(-c3cccc(F)c3)nc2)CC1` [Example 77, N-{cis-4-[Ethyl(methyl)carbamoyl]cyclohexyl}-6-(3-fluorophenyl)nicotinamide], 6.42 nM.
Then `CN(C)C(=O)C[C@H]1CC[C@@H](NC(=O)c2ccc(-c3cccc(F)c3)nc2)CC1` [Example 78], with 7.89 nM; and `Cc1nccn1C[C@H]1CC[C@@H](NC(=O)c2ccc(-c3cccc(F)c3)nc2)CC1` [Example 79, 6-(3-Fluorophenyl)-N-{cis-4-[(2-methyl-1H-imidazol-1-yl)methyl]cyclohexyl}nicotinamide], with 15.9 nM.
